This is an account of results in patent US20220183282A1, “Fatty Acid Derivatives For Improving The Effect Of Agrochemical Actives” (priority 2019, published 2022).

The structures appear in SMILES notation.

Series [1] concerns apple leaf cuticles. Put plainly: Penetration of MCPA through isolated apple leaf cuticles in the presence of test substances. As to conditions: for Mean penetration for MCPA after time: MCPA 1.5 g/L in spray liquid, 25° C./56% rel. air humidity. The source says:
(§1) Surfactants can affect the absorption of (active) ingredients through membranes such as skin, films or the plant cuticle. As a “finite-dose” application, it is known for the single administration or application of a solution, cream, gel etc. to a membrane that the absorption of active ingredient can be influenced by some additives such as surfactants even after wetting.
(§2) The principle of the method has been published and described in detail e.g. in WO-A-2005/194844 or WO2017211572 A1). The leaf cuticles were enzymatically isolated in the manner described in the literature from apple leaves of orchard trees in a commercial stone fruit growing facility near Frankfurt am Main in 2017. The stomata-free cuticles were first dried under air and then installed into stainless steel diffusion cells. After application to the original upper side of the leaf and evaporation of the test liquid, i.e. of the spray liquids of the active ingredients with or without the inventive substances or comparative compositions, the diffusion cells were transferred into thermostated blocks and charged with aqueous liquid. The water used to make up the aqueous test liquids was local tap water (of known composition). At regular intervals, aliquot samples were taken and the proportion of active ingredient penetrated was determined by HPLC or alternatively by radio-chemical method where radio-labelled active ingredient was used as tracer to determine the concentration. During the experiment, the temperature in the system (block, diffusion cells, liquids, etc.) and the air humidity above the spray deposit on the cuticle were controlled. In the experiment, relative air humidity was constant throughout at 56% relative air humidity (air over supersaturated calcium nitrate) at a constant 10° C. or 25° C. The analytical determination by means of HPLC (1290 Infinity, Agilent) was effected thereafter with a Kinetex column 30×2, 1 mm, 2.6μ C18 100 A (Phenomenex), taking a 20 μL aliquot as injection volume at the specified times. In each case, the geometric mean values of the penetration for intact membranes at the mean measurement times are given.

The test system of series [2] is apple leaf cuticles. Put plainly: Penetration of Milbemectin through isolated apple leaf cuticles in the presence of test substances. The series is classed as in vitro ADME. The settings on record: for Mean penetration for Milbemectin after time: Milbemectin 0.03 g/L in spray liquid.
Text: as §1, §2

With `CCCCCCCCC(=O)OCCOCCOCCOCCOCCOCCOC` [A1, Pelargonic acid 6 EO ester methyl ether], the “Mean penetration for MCPA after time” value worked out at 34.2% in the series on apple leaf cuticles [1] (test substance 0.3 g/L, 0.5 day); 45.5% in the series with apple leaf cuticles [1] (test substance 0.3 g/L, 1 day); 46.9% with apple leaf cuticles [1] (test substance 1.0 g/L, 0.5 day); 53.9% with apple leaf cuticles [1] (test substance 1.0 g/L, 1 day). Besides, the “uptake of the active ingredient (MCPA), in words” value with apple leaf cuticles [1] (summary of Table 3) is recorded as “strongly increases the uptake”. Also, the “Mean penetration for Milbemectin after time” value is listed as 4.3% with apple leaf cuticles [2] (test substance 1.5 g/L, 1 day); 4.2% with apple leaf cuticles [2] (test substance 1.5 g/L, 2 days); 4.7% in the series with apple leaf cuticles [2] (test substance 3.0 g/L, 1 day); 5.4% in the series with apple leaf cuticles [2] (test substance 3.0 g/L, 2 days). In the series on apple leaf cuticles [2] (summary of Table 9, compared to the commercial formulation), the “uptake of the agrochemical active (Milbemectin), in words” value is listed as “strongly increases the uptake”.
